ChEMBL document CHEMBL4359829, “Straightforward synthesis and biological evaluation as topoisomerase I inhibitors and antiproliferative agents of hybrid Chromeno[4,3-b][1,5]Naphthyridines and Chromeno[4,3-b][1,5]Naphthyridin-6-ones” (Eur J Med Chem, 2019)

Assays:
[1] = target: T1, DNA topoisomerase 1 (Homo sapiens) (UniProt P11387); assay: Inhibition of recombinant human Top1 expressed in Saccharomyces cerevisiae null strain RS190 assessed as decrease in relaxation of supercoiled plasmid DNA at 100 uM using supercoiled plasmid DNA as substrate incubated for 15 sec by red staining based DNA relaxation assay relative to camptothecin
T1 sequence (whole entry): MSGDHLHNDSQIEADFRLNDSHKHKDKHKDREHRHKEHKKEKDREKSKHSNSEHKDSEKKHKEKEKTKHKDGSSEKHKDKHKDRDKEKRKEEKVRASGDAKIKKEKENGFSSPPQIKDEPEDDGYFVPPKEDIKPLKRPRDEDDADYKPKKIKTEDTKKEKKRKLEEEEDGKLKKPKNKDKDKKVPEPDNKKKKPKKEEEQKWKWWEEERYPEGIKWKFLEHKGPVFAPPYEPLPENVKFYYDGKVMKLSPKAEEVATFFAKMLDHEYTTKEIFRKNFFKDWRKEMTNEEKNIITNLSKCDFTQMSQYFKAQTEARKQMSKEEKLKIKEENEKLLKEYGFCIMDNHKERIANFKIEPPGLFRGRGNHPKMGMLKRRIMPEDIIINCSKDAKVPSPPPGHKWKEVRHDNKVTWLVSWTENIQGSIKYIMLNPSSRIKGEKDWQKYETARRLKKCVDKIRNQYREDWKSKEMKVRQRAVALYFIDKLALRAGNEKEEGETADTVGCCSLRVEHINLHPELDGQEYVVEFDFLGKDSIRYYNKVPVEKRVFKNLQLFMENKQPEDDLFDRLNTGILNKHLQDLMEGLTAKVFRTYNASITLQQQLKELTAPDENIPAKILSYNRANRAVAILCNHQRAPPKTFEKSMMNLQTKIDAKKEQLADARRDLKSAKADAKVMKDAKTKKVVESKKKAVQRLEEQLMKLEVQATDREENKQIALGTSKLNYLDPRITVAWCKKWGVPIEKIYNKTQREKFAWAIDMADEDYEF

[2] = target: T1, DNA topoisomerase 1 (Homo sapiens); assay: Inhibition of recombinant human Top1 expressed in Saccharomyces cerevisiae null strain RS190 assessed as decrease in relaxation of supercoiled plasmid DNA at 100 uM using supercoiled plasmid DNA as substrate incubated for 1 min by red staining based DNA relaxation assay relative to camptothecin
[3] = target: T1, DNA topoisomerase 1 (Homo sapiens); assay: Inhibition of recombinant human Top1 expressed in Saccharomyces cerevisiae null strain RS190 assessed as decrease in relaxation of supercoiled plasmid DNA at 100 uM using supercoiled plasmid DNA as substrate incubated for 3 min by red staining based DNA relaxation assay relative to camptothecin
A549 = assay: Antiproliferative activity against human A549 cells incubated for 48 hrs by CCK8 assay; format: functional, cell-based; details: A549, 48 h
SK-OV-3 = assay: Antiproliferative activity against human SKOV3 cells incubated for 48 hrs by CCK8 assay; format: functional, cell-based; details: SK-OV-3, 48 h
MRC5 = assay: Cytotoxicity against human MRC5 cells incubated for 48 hrs by CCK8 assay; format: cell-based; details: MRC5, 48 h

inhibition [1] [%] | inhibition [2] [%] | inhibition [3] [%] | IC50 (A549) [µM] | IC50 (SK-OV-3) [µM] | Compound | IC50 (MRC5) [µM]
5 | 7 | 5 | 25.4 | > 50 | O=C1Oc2ccccc2[C@H]2Nc3cccnc3[C@@H](c3ccccc3)[C@H]12 (relative stereo) | > 50
30 | 25 | 2 | > 50 | > 50 | O=C1Oc2ccc(F)cc2[C@H]2Nc3cccnc3[C@@H](c3ccccc3)[C@H]12 (relative stereo) | > 50
2 | 2 | 2 | > 50 | > 50 | Cc1ccc2c(c1)-c1nc3cccnc3c(-c3ccccc3)c1CO2 | > 50
70 | 69 | 19 | 7.25 | 12.7 | Cc1ccc2c(c1)[C@H]1Nc3cccnc3[C@@H](c3ccccc3)[C@@H]1CO2 (relative stereo) | > 50
5 | 4 | 1 | 1.03 | 1.75 | c1ccc([C@@H]2c3ncccc3N[C@@H]3c4ccccc4OC[C@@H]23)cc1 (relative stereo) | > 50
30 | 14 | 2 | > 50 | > 50 | c1ccc(-c2c3c(nc4cccnc24)-c2ccccc2OC3)cc1 | > 50
2 | 1 | 1 | 11.3 | > 50 | Fc1ccc2c(c1)[C@H]1Nc3cccnc3[C@@H](c3ccccc3)[C@@H]1CO2 (relative stereo) | > 50
25 | 2 | 2 | 9.03 | > 50 | O=c1oc2ccccc2c2nc3cccnc3c(-c3ccccc3)c12 | > 50
29 | 30 | 29 | 17.9 | > 50 | COc1ccc(-c2c3c(nc4cccnc24)-c2ccccc2OC3)cc1 | > 50
2 | 2 | 2 | > 50 | > 50 | Fc1ccc2c(c1)-c1nc3cccnc3c(-c3ccccc3)c1CO2 | > 50
86 | 16 | 15 | 11.7 | > 50 | COc1ccc2nc3c(c(-c4ccccc4)c2n1)COc1ccccc1-3 | > 50
72 | 12 | 12 | > 50 | > 50 | COc1ccc2nc3c(c(-c4ccccc4)c2n1)c(=O)oc1ccccc13 | > 50
81 | 26 | 12 | 5.43 | > 50 | COc1ccc2c(n1)[C@@H](c1ccccc1)[C@@H]1COc3ccccc3[C@H]1N2 (relative stereo) | > 50
84 | 6 | 6 | > 50 | > 50 | Fc1ccc(-c2c3c(nc4cccnc24)-c2ccccc2OC3)cc1F | > 50
4 | 4 | 4 | 29 | > 50 | O=c1oc2ccccc2c2nc3ccc(Br)nc3c(-c3ccccc3)c12 | > 50
4 | 4 | 4 | > 50 | > 50 | COc1ccc2c(n1)[C@@H](c1ccccc1)[C@@H]1C(=O)Oc3ccccc3[C@H]1N2 (relative stereo) | > 50
4 | 4 | 4 | > 50 | > 50 | O=C1Oc2ccccc2[C@H]2Nc3ccc(Br)nc3[C@@H](c3ccccc3)[C@H]12 (relative stereo) | > 50
4 | 4 | 4 | > 50 | > 50 | Brc1ccc2nc3c(c(-c4ccccc4)c2n1)COc1ccccc1-3 | > 50
26 | 2 | 2 | > 50 | > 50 | O=c1oc2ccc(F)cc2c2nc3cccnc3c(-c3ccccc3)c12 | > 50
